system: P. falciparum 3D7 growth, pLDH absorbance; experiment: blood-stage malaria parasite growth potency – strain 3D7, dose response (AID 2305)

Row | SMILES | IC50 [nM]
1 | Cc1ccc(Nc2ccnc3cc(-c4nccs4)ccc23)cc1C(O)c1ccccc1 (configuration not stated) | 740
2 | COc1cc2nc(NCCCOC(C)C)n3nc(-c4ccccc4)nc3c2cc1OC | 200
3 | COc1cc(-c2nc(-c3ccc4c(c3)CCC4=NO)c(-c3ccncc3)[nH]2)ccc1OCCN1CCN(C)CC1 | 760
4 | Fc1ccc2nc(-c3ccc(-c4cccc(CN5CCN(c6ccncc6)CC5)c4)cc3)[nH]c2c1 | 90
5 | CCCc1ccc(S(=O)(=O)NC2CCN(c3ccnc(Nc4ccc(F)cc4)n3)C2)cc1 (configuration not stated) | 1010
6 | CN1CC[C@H](N(Cc2ccccc2F)c2ccc(C#N)c(Cl)c2)C1 | 1270
7 | COc1ccc2[nH]c(C(=O)Nc3ccc4nc(-c5ccccc5)[nH]c4c3)cc2c1 | 830
8 | Cc1cccc2[nH]c(-c3ccc(-c4ccc(CN5CCCC(N)C5)cc4)cc3)nc12 (configuration not stated) | 350
9 | Oc1ccc2[nH]c(-c3cccc(F)c3)nc2c1CNCc1ccccc1 | 920
10 | CCCNc1ccc2nccc(CCN3CCC(NCc4ccc5c(c4)NC(=O)CS5)CC3)c2n1 | 580
11 | COc1ccc(N2C(=O)C3C(C2=O)C2(C)c4ccccc4C3(C)c3ccccc32)c([N+](=O)[O-])c1 (configuration not stated) | 720
12 | Cc1[nH]c(C)c(-c2ccc(OCc3cc(C(F)(F)F)cc(C(F)(F)F)c3)nc2)c(=O)c1Br | 150
13 | O=C(CCCCCNC(=O)c1ccc(O)c(-c2cccc(C(F)(F)F)c2)c1)NCCN1CCCCC1 | 890
14 | COc1ccc2nc(-c3ccc(C(=O)NCCCN4CCN(c5cc(Cl)ccc5OC)CC4)cc3)[nH]c2c1 | 770
15 | CC1(C)N=C(N)N=C(N)N1OCCOc1ccc(Cc2ccccc2)cc1 | 40
16 | Cc1ccc(C2(CN3CCC(NC(=O)c4[nH]ncc4Cl)CC3)CCCCC2)cc1 | 320
17 | CC(=O)Nc1ccc(OCCCCN(Cc2ccccc2C(F)(F)F)c2ccc(C#N)c(C(F)(F)F)c2)cc1 | 1390
18 | Fc1cccc(COc2ccc(Nc3ncnc4sc(C#C[C@H]5CC[C@H](CN6CCOCC6)N5)cc34)cc2Cl)c1 | 920
19 | c1ccc(-c2nc(NC3CCCCC3)cc(C3CC3)n2)nc1 | 730
20 | CCn1ncc2c(NC3CCOCC3)c(CNC(=O)c3ccnn3C)c(C)nc21 | 530
21 | COc1cccc(CN2Cc3ccccc3OC3(CCN(Cc4c[nH]c5cnccc45)CC3)C2)c1 | 1300
22 | COc1ccc2nccc([C@@H](O)CN3CCC(NCc4[nH]c5ccccc5c4F)CC3)c2c1 | 250
23 | c1cc(CN2CCc3ccccc3CC2)cc(-c2c[nH]c3nc(NC4CCCC4)ncc23)c1 | 800
24 | O=C(NC1CCN(c2ccnc(Nc3ccc(F)cc3)n2)C1)c1cc2ccccc2s1 (configuration not stated) | 720
25 | Clc1ccc(OCc2ccccc2)c(Cc2ccc(-c3nc4ccncc4[nH]3)o2)c1 | 750

Row | SMILES | IC50 [nM]
26 | CC(C)(C)N1CCC(N(Cc2ccc(-c3ccc(C(F)(F)F)cc3)cc2)C(=O)Cn2c(CCc3cccc(F)c3F)cc(=O)c3ccccc32)CC1 | 790
27 | CCOC(=O)c1[nH]c(-c2ccc(Cl)cc2)nc1NC(=S)NCCCN1CCOCC1 | 870
28 | COc1ccc(CNC(=O)c2cnc3cc(-c4c(C)noc4C)ccc3c2Nc2ccccc2C(C)(C)C)cc1 | 1300
29 | COc1cc2nc(N3CCC(c4ccccc4)CC3)nc(NCc3ccc(=O)[nH]c3)c2cc1OC | 750
30 | COc1cc2nc(N3CCC(CNC(=O)c4ccc(-c5ccc(O)cc5)cc4)CC3)nc(N)c2cc1OC | 170
31 | O=C(/C=C/c1ccc(Cl)c(Cl)c1)NCCCCCCN1CCCN(C(=O)Nc2ccc(F)c(F)c2)CC1 | 1240
32 | CCCNCc1ccc(-c2ccc(CN(CCOC)C(=O)/C=C/c3ccccc3C)cc2)nc1 | 900
33 | Cc1ccc(NC(=O)Nc2ccccc2)cc1-c1ccc(C(=O)Nc2ccncc2)cc1 | 240
34 | O=C(NC1CC1)c1cnc(N2CCN(Cc3c(F)cccc3Cl)CC2)c(Cl)c1 | 910
35 | Cc1[nH]c2ccccc2c1C(=O)C(C)Sc1nnc(-c2ccccc2F)o1 (configuration not stated) | 690
36 | Cc1ccc(C)c(N2CCN(Cc3ccccc3O)CC2)c1 | 940
37 | O=[N+]([O-])c1cccc(CNCC2CCN(CCc3ccccc3)CC2)c1 | 780
38 | Cc1[nH]c(C)c(-c2ccc(Oc3ccc(C(F)(F)F)cc3)cc2)c(=O)c1Br | 210
39 | COc1ccc2ncc(Cl)c([C@@H](O)CN3CCC(NCc4cc5c(cn4)OCCO5)CC3)c2c1 | 60
40 | CSc1nc2nc(C)c(Cc3cccc(C(F)(F)F)c3)c(C)n2n1 | 190
41 | CCCCCCCN1CC[C@@H](C[C@H](N)Cc2ccnc3ccc(OC)cc23)[C@@H](CC)C1 | 1070
42 | COc1cccc(OC)c1CN1CCC(N(C)CCCCCCCCN2CCC(OC(=O)Nc3ccccc3-c3ccccc3)CC2)CC1 | 460
43 | Nc1nc(N)c2c(Oc3cc(Cl)c(Cl)c(Cl)c3)cccc2n1 | 800
44 | Cc1noc(-c2ccccc2)c1CN1CCCC2(CC(C(=O)NCc3cccc(F)c3F)=NO2)C1 (configuration not stated) | 1010
45 | COC(=O)c1noc(C)c1I | 800
46 | COc1ccc(CCN2CCC(NCc3cccc(N(C)C)c3)CC2)cc1 | 1320
47 | O=C(Nc1ccc([N+](=O)[O-])cc1Cl)c1cc2ccccc2cc1O | 1010
48 | CC1(C)N=C(N)N=C(N)C1c1ccc(Cl)c(Cl)c1 (configuration not stated) | 30
49 | CN1CCC(C(=O)Nc2cccc(-c3ccc(-c4nc5ccc(F)cc5[nH]4)cc3)c2)CC1 | 710
50 | CCCCCCCCOc1c(OCC)cc(Cc2cnc(N)nc2N)cc1OCC | 1530

Row | SMILES | IC50 [nM]
51 | CC=CC1CCNC(C(O)c2ccnc3ccc(OC)cc23)C1 (configuration not stated) | 1090
52 | CC(C)Oc1ccccc1-c1csc(C(=O)NCC2CCN(Cc3ccc(C(C)(C)C)cc3)C2)c1 (configuration not stated) | 1070
53 | O=C(Nc1ccc(F)c(Cl)c1)NC1CCN(c2ccnc3cc(Cl)ccc23)C1 (configuration not stated) | 210
54 | CCN(CC)CCCC(C)Nc1ccnc2[nH]c3ccccc3c12 (configuration not stated) | 1770
55 | CC(C)(C)c1ccc(CN2CCC(NC(=O)c3ccc(-c4cccc(Cl)c4)s3)CC2)cc1 | 1070
56 | CC(=O)Nc1ccc(S(=O)(=O)Nc2ccc(Nc3nc(C)cc(N4CCCCC4)n3)cc2)cc1 | 780
57 | O=C(Nc1ccc2oc(-c3ccc(Cl)cc3Cl)nc2c1)c1ccc([N+](=O)[O-])o1 | 1100
58 | Cc1[nH]c2cc(F)ccc2c1C1=CCN(CCCCC2(C)C(=O)Nc3c(F)cccc32)CC1 (configuration not stated) | 400
59 | CC(C)c1ccc(CN2CCC(NC(=O)c3ccc(-c4ccccc4F)s3)CC2)cc1 | 1550
60 | Nc1ncc(-c2ccc(NC(=O)Nc3cc(C(F)(F)F)ccc3F)cc2)c(N)n1 | 720
61 | CN(C)S(=O)(=O)c1ccc(Nc2nc(NCCC3C=NC=N3)nc3cc[nH]c(=O)c23)cc1 (configuration not stated) | 930
62 | COc1cccc(C(=O)Nc2ccc(Oc3ccc(Cl)cc3)cc2)c1 | 960
63 | N#Cc1ccc(NC(=Nc2ccccc2Br)N(C2CCCCC2)C2CCCCC2)c(O)c1 | 780
64 | Cc1c(F)cc(C(=O)NC2CC2)cc1-c1ccc2c(cnn2S(=O)(=O)c2ccc(C#N)cc2)c1 | 100
65 | COc1cc(F)c2ncc(Cl)c(CCN3CCC(NCc4ccc5c(n4)NC(=O)CS5)CC3)c2c1 | 480
66 | O=C(NCCCCN1CCC(c2ccc(-c3ccco3)cc2)CC1)c1ccc(NC(=O)c2ccc(Cl)cc2)cc1 | 540
67 | COc1cc(OC)cc(-c2nn(-c3ccc([N+](=O)[O-])cc3C#N)c(=S)n2Cc2ccco2)c1 | 580
68 | CCCCCCN(CCCCCC)CC(O)c1c(OC)ccc2ccccc12 (configuration not stated) | 570
69 | CCOC(=O)c1c(C)n(-c2ccc(Cl)cc2)c2ccc(OC(=O)C=Cc3ccccc3)cc12 | 700
70 | Cc1cc(-c2ccc(O)c(CNC3CCCCC3)c2)cnc1N | 200
71 | O=C(/C=C/c1ccc(Cl)cc1)NCCCCCN1CCCN(C(=O)Nc2cccc(Cl)c2)CC1 | 1000
72 | Cc1cc2nc(-c3ccc(C(=O)NC4CCN(Cc5ccccc5)CC4)cc3)[nH]c2cc1C | 740
73 | COc1ccc2nccc([C@@H](O)CN3CCC(NC(=O)C(=Cc4ccc(C#N)cc4)c4ccc(-c5ccccc5)cc4)CC3)c2c1 | 740
74 | CCOc1cccc(C(=O)Nc2cccc(CN3CCCN(Cc4cccc(O)c4)CC3)c2)c1 | 1090
75 | CC(C)CNCc1cccc(-c2cccc(CN(CCCN3CCN(C)CC3)C(=O)NC3CCCCC3)c2)c1 | 760

Row | SMILES | IC50 [nM]
76 | COc1ccc(NC(=O)c2cn(-c3ccc(C(C)(C)C)cc3)nc2C)cc1N1CCN(C)CC1 | 950
77 | COc1cc(OC)c2c(C)cc(NCCCN3CCOCC3)nc2c1 | 1070
78 | COc1cc(NC2CCCC(NCc3cn(S(=O)(=O)c4ccccc4)c4ccccc34)C2)nc2ccccc12 (configuration not stated) | 250
79 | CC(Oc1ccc(Cl)cc1)C(=O)Nc1cc(C(F)(F)F)ccc1-n1cncn1 (configuration not stated) | 150
80 | CCC(CO)NCC(O)Cn1c2ccc(Cl)cc2c2cc(Cl)ccc21 (configuration not stated) | 770
81 | Cc1cccc2[nH]c(-c3ccc(-c4cccc(CNCCNC(=O)c5ccnn5C)c4)s3)nc12 | 220
82 | CC(=O)c1c[nH]c2ccc(/C=C/C(=O)NC3CCC(CCN4CCc5ccc(C#N)cc5CC4)CC3)cc12 (configuration not stated) | 500
83 | COc1ccc(CNC2CCN(C)CC2)cc1-c1ccc(S(=O)(=O)NCc2ccccc2)c(C)c1 | 990
84 | COc1cc(CNCCCCCCNCc2cc(OC)cc3ccccc23)c2ccccc2c1 | 590
85 | O=C(c1ccccc1[N+](=O)[O-])N(Cc1ccccc1)c1ccccn1 | 190
86 | CN1CCCC(CN2CCN(Cc3cccc(-c4ccc(-c5nc6ccccc6[nH]5)cc4)c3)CC2)C1 (configuration not stated) | 160
87 | Cc1cc(F)ccc1[C@H]1CNCCN1C(=O)N(C)C(C)(C)c1cc(C(F)(F)F)cc(C(F)(F)F)c1 | 590
88 | Cn1cc(C2CCN(CCCCNC(=O)c3ccc(-c4ccc(C(F)(F)F)cc4)c(CO)c3)CC2)c2ccccc21 | 1000
89 | COc1cc(-c2nc(-c3ccccc3)c(-c3ccccc3)[nH]2)cc(OC)c1O | 770
90 | COc1ccc(CNC2Cc3ccccc3C2)cc1-c1ccc(S(=O)(=O)NCc2cccnc2)s1 | 1110
91 | CC(C)c1ncc(-c2ccncc2)c(C2CCC(CNC(=O)c3ccncc3)CC2)n1 (configuration not stated) | 1350
92 | CC(NC(=O)NC1CCC(CCN2CCCc3ccccc32)CC1)c1cccc2ccccc12 (configuration not stated) | 1020
93 | CC(C)C[C@@H](C(=O)Nc1ccc(Cc2ccc(NC(=O)[C@H](CC(C)C)N(C)C(=O)OC(C)(C)C)cc2)cc1)N(C)C(=O)OC(C)(C)C | 820
94 | COc1c(OC)c(OC)c2ccccc2c1CCNCCCCNCCc1c(OC)c(OC)c(OC)c2ccccc12 | 610
95 | Cc1ccc(C(C(=O)Nc2ccc(N3CCNCC3)c(Cl)c2)c2ccccc2)cc1 (configuration not stated) | 840
96 | CCc1cn2c3c(cc(C(=O)N[C@@H](Cc4ccccc4)[C@H](O)CNC4CCCC4)cc13)N(C)S(=O)(=O)CC2 | 50
97 | O=C(Nc1ccc(CN2CCOCC2)cc1)c1ccc(-c2ccc(Br)cc2)o1 | 1120

— PubChem BioAssay AID2305 (GlaxoSmithKline (GSK), 2010)
